Test results from patent US9629864B2 (priority 2013, dated 2017).

Tests used:
[1] = tested on: mouse model of acute hemolytic uremic syndrome (type 2 Shiga toxin); design: species or system mice; conditions: in vivo, 200 mg/kg
[2] = tested on: mouse model of acute hemolytic uremic syndrome (type 2 Shiga toxin); design: species or system mice; conditions: in vivo, 200 mg/kg; remark: listed apart in the source
[3] = tested on: mouse model of acute hemolytic uremic syndrome (type 2 Shiga toxin); design: species or system mice; conditions: in vivo, 200 mg/kg; remark: listed apart in the source
[4] = tested on: Hela cells; conditions: 72 h
[5] = tested on: yeast-type fungi; conditions: cited from earlier work

SMILES: O=C(O)[C@H]1O[C@@H](Oc2cc3oc(-c4ccccc4)cc(=O)c3c(O)c2O)[C@H](O)[C@@H](O)[C@@H]1O [baicalin]
- survival rates of mice [1]: significantly increased
- pathological changes of kidney [2]: only a minor hemorrhage existed in the kidney tissue, and there was no significant difference compared with mice in normal group
- content of blood urea nitrogen (BUN) in mouse serum, drug administration group vs normal control group [3]: no significant difference
- content of creatinine in mouse serum, drug administration group vs normal control group [3]: no significant difference
- inhibition of cytotoxicity of Hela cells caused by type 2 Shiga toxin [4]: significantly inhibited the cytotoxicity of Hela cells caused by type 2 Shiga toxin, in a dose-dependent manner
- minimal inhibitory concentration (MIC) [5]: 70 to 100 mg/L
